{"source": "patent US20190195897A1", "about": "“GLYCOSYLATED METABOLITES” (UNIVERSITEIT LEIDEN, priority 2015, published 2019)", "key": {"COS7 cells": {"test_system": "COS7 cells", "experiment": "GlcChol in cultured COS7 cells incubated with inhibitors of GBA2 and GBA", "assay_type": "cell-based", "conditions": "for increased cellular GlcChol level in cells with overexpressed GCS: COS7 cells with overexpressed GCS, 2 days with inhibitor", "protocol": "FIG. 4A: GlcChol (nmol/g protein) in COS cells without overexpression of enzymes (control), overexpressed GBA2, GCS and both (GBA2+GCS). Cells were incubated for 2 days with indicated inhibitors of GBA2 (AMP-DNM) and GBA (CBE).\nThe GlcChol content of cultured COS7 cells and factors influencing this was determined. First the impact of overexpressed GBA2 and GCS was studied.\nCOS-7 cells were cultured in Iscove's modified Dulbecco's medium (Life Technologies, Carlsbad, Calif., USA) supplemented with 5% fetal bovine serum (FBS; Bodinco, Alkmaar, The Netherlands) and in the presence of penicillin/streptomycin Liffe Technologies, Carlsbad, Calif., USA under 5% CO2 at 37° C. […] After 72 h, the medium was removed, cells were washed trice with ice-cold PBS and harvested by scraping in 25 mM potassium-phosphate buffer, pH 6.5.\nCOS-7 cells overexpressing GBA2 and/or GCS were homogenized by sonication on ice. Prior to extraction, 2 pmol of ^13C-labelled GlcChol in methanol (used as an internal standard) was added to 180 μL of homogenate. Next, lipids were extracted according to the method of Bligh and Dyer by addition of methanol, chloroform and water (1:1:0.9, v/v/v) and the lower phase was taken to dryness under a stream of nitrogen. Isolated Is lipids were purified by water/butanol extraction (1:1, v/v) and 8-GlcChol was analyzed by LC-MS as described before."}, "RAW 267 cells": {"test_system": "RAW 267 cells", "experiment": "GlcChol in RAW 267 cells exposed to U18666A", "assay_type": "cell-based", "conditions": "for increase of GlcChol in U18666A exposed cells: RAW 267 cells with U18666A, added agent present", "protocol": "FIG. 5C: GlcChol (pmol/mg protein) in RAW 267 cells incubated with indicated concentration U18666A for 1 day in absence and presence of conduri.tol B-epoxide (CBE) inhibiting GBA.\nFIG. 5D: GlcChol (pmol/mg protein) in RAW 267 cells incubated with 10 uM U18666A for 1 day and in subsequent absence and presence of 1 mM β-methylcyclodextrin (β-mCD) reducing intralysosomal cholesterol."}, "type 1 GD patients": {"test_system": "type 1 GD patients", "experiment": "Plasma GlcChol in treated type 1 GD patients", "assay_type": "in vivo, human", "conditions": "plasma specimens of type 1 GD patients", "protocol": "FIG. 6C: Reduction in plasma GlcChol following Eliglustat treatment.\nGlcChol levels in plasma of untreated symptomatic type 1 GD patients was determined as well as in NPC patients, carriers and healthy controls. […] The abnormalities are more pronounced when plasma GlcChol is related to Chol (FIG. 6B).\nFor quantitative analysis of GlcChol in samples of plasma, we developed a LC-MS/MS method using the MRM mode of the transitions mentioned above. Firstly, GlcChol was extracted from plasma from a healthy individual according the method of Bligh and Dyer (28) with a few modifications. 20 μL of plasma was pipetted in an Eppendorf tube (2 mL) and 20 μL of an internal standard solution, containing 0.1 pmol/μL of ^13C6-β-GlcChol in methanol, was added, followed by addition of 280 μL methanol and 150 μL of chloroform. After brief mixing, the sample was left at room temperature for 30 min, mixed occasionally and centrifuged for 10 min at 15700×g to spin down precipitated protein. The supernatant was transferred to an Eppendorf tube and 150 μL chloroform and 250 μL water were added to induce separation of phases. After centrifugation (5 min at 15700×g) the lower, hydrophobic phase was transferred to a clean Eppendorf tube and the upper phase was washed. by addition of 300 μL of chloroform. Lower phases were pooled and taken to dryness at 35° C. under a nitrogen stream. […]"}, "type 1 GD mice": {"test_system": "type 1 GD mice", "experiment": "Treatment of mice with induced Gaucher disease with GCS inhibitor; plasma GlcCer and GlcChol", "assay_type": "in vivo", "conditions": "treated with GCS inhibitor", "text": "FIG. 2E: Plasma GlcChol (nM) in normal, type 1 GD mice untreated and treated with GENZ 112638.\nAs shown in FIG. 2A and FIG. 2B, the GlcChol concentration was markedly lower in tissues of GBA2-deficient animals, especially in thymus. In contrast, in the GBA-deficient LIMP-2 KO mice no reduction in GlcChol, but rather a small increase in levels was observed (FIG. 2A, 2B). An increase in GlcChol was also observed in liver of mice with an induced GBA deficiency in the white blood cell lineage (FIG. 2C). Efficient correction of GBA deficiency by gene therapy led to a concomitant reduction of GlcChol (FIG. 2C).\nThe following mice were used for investigation: GD1 mice in which GBA-deficiency was induced (31, 32); mice with spontaneous Niemann Pick Type C (33) and Npc1−/− mice (34); LIMP2−/− mice (35), and GBA2 −/− mice (22). Animals were sacrificed and tissue were immediately frozen and stored at −80° C.\nFor quantitative analysis of GlcChol in samples of plasma, we developed a LC-MS/MS method using the MRM mode of the transitions mentioned above. Firstly, GlcChol was extracted from plasma from a healthy individual according the method of Bligh and Dyer (28) with a few modifications. […]"}}, "data": [{"compound": "O[C@H]1[C@H](O)[C@@H](O)[C@@H]2O[C@@H]2[C@@H]1O", "note": "(racemic) [CBE, Conduritol B epoxide]", "values": [{"measurement": "increased cellular GlcChol level in cells with overexpressed GCS", "setting": "COS7 cells", "value": "did hardly diminish"}, {"measurement": "increase of GlcChol in U18666A exposed cells", "setting": "RAW 267 cells", "value": "prevented completely"}]}, {"compound": "OC[C@@H]1[C@@H](O)[C@H](O)[C@@H](O)CN1CCCCCOCC12CC3CC(CC(C3)C1)C2", "note": "[AMP-DNM, N-(5-adamantane-1-yl-methoxy-pentyl)-deoxynojirimycin]", "values": [{"measurement": "increased cellular GlcChol level in cells with overexpressed GCS", "setting": "COS7 cells", "value": "the elevation in GlcChol was prevented"}, {"measurement": "cellular GlcChol", "setting": "COS7 cells; COS7 cells, low nanomolar inhibitor, 2 days", "value": "reduced cellular GlcChol"}]}, {"compound": "CCCCCCCC(=O)N[C@H](CN1CCCC1)[C@H](O)c1ccc2c(c1)OCCO2", "note": "[Eliglustat]", "values": [{"measurement": "plasma GlcChol following treatment", "setting": "type 1 GD patients", "value": "prominent reduction"}]}, {"compound": "CCCCCCCC(=O)N[C@H](CN1CCCC1)[C@H](O)c1ccc2c(c1)OCCO2", "note": "[GENZ 112638]", "values": [{"measurement": "elevated plasma GlcChol", "setting": "type 1 GD mice", "value": "minor, not statistically significant, reduction"}, {"measurement": "plasma GlcCer", "setting": "type 1 GD mice", "value": "partial reduction"}]}, {"compound": "CCN(CC)CCO[C@H]1CC[C@@]2(C)C(=CC[C@@H]3[C@@H]2CC[C@]2(C)C(=O)CC[C@@H]32)C1", "note": "[U18666A]", "values": [{"measurement": "GlcChol in cells on induction of lysosomal cholesterol accumulation", "setting": "RAW 267 cells; RAW 267 cells, 1 day", "value": "rapid increase"}]}, {"compound": "CCCCN1C[C@H](O)[C@@H](O)[C@H](O)[C@H]1CO", "note": "[Zavesca]", "values": [{"measurement": "plasma GlcChol following treatment", "setting": "type 1 GD patients", "value": "not"}]}, {"compound": "β-methylcyclodextrin [B-methyl-cyclodextrin]", "values": [{"measurement": "increase of GlcChol in U18666A exposed cells", "setting": "RAW 267 cells", "value": "prevented"}]}]}
